Experiment [1] concerns 5′-Cy5-BsPreQ1-RS (RNA, riboswitch) AGAGGUUCUAGCUACACCCUCUAUAAAAAACUAA
The experiment is described as follows: fluorescence intensity titration of labelled RNA. The note with it: 100 mM KCl, 1 mM MgCl2; 50 mM Tris pH 7.5, 10% DMSO, room temperature, RNA 50 nM; apparent.

Experiment [2] has as its system ab13_14 (RNA, riboswitch, abasic at 13 and 14) CUGGGUCGCAGUNNCCCCAGUUAACAAAACAAG
Briefly: X-ray crystallography.

Experiment [3] has as its system 5′-AF647-TtPreQ1-RS (RNA, riboswitch) CUGGGUCGCAGUAACCCCAGUUAACAAAACAAG
The experiment is described as follows: fluorescence intensity titration of labelled RNA. The note with it: 100 mM KCl, 1 mM MgCl2; 50 mM Tris pH 7.5, 10% DMSO, room temperature, RNA 50 nM; apparent.

Experiment [4] has as its system 5′-AF647-BsPreQ1-RS (RNA, riboswitch) GGAGAGGUUCUAGCUACACCCUCUAUAAAAAACUAA
Briefly: in-line probing. As to conditions: 10 mM KCl, 2 mM MgCl2.

Experiment [5] relates to Ss PreQ1 TTA transcript (RNA, riboswitch) AUGUAGUAAGGAGGUUGUAUGGAAGACGAGAGGUUCCUAGCUGAUACCCUCUAUAAAAAACUAGACACAUGUACAACGUCUGUCUUUUUUAUAGAGAUAGGCGUUUUUUUAUGCGCUUAUCUAAACCCUGUACCAGUUAGUUCGACUAUUUUUAAGGAGU
Briefly: single-round in vitro transcription termination. As to conditions: KCl, MgCl2; 20 mM Tris-HCl pH 8.0, 37 °C, E. coli RNA polymerase.

Experiment [6] concerns TtPreQ1-RS (unlabeled) (RNA, riboswitch) CUGGGUCGCAGUAACCCCAGUUAACAAAACAAG
The experiment is described as follows: WaterLOGSY and CPMG NMR. The note with it: 100 mM KCl, 1 mM MgCl2; 50 mM Tris-d11 pH 7.5, 5% DMSO-d6; non-binding control, tested at 375 µM.

The test system of experiment [7] is BsPreQ1-RS (unlabeled) (RNA, riboswitch) AGAGGUUCUAGCUACACCCUCUAUAAAAAACUAA
The experiment is described as follows: WaterLOGSY and CPMG NMR. As to conditions: 100 mM KCl, 1 mM MgCl2; 50 mM Tris-d11 pH 7.5, 5% DMSO-d6; non-binding control, tested at 375 µM.

For experiment [8], the system named is SsPreQ1-RS (unlabeled) (RNA, riboswitch) AGAGGUUCCUAGCUGAUACCCUCUAUAAAAAACUA
The experiment is described as follows: WaterLOGSY NMR. The note with it: 100 mM KCl, 1 mM MgCl2.

Experiment [9] deals with ab13_14_15 (RNA, riboswitch, abasic at 13, 14 and 15) CUGGGUCGCAGUNNNCCCAGUUAACAAAACAAG
Briefly: X-ray crystallography.

The test system of experiment [10] is BsPreQ1-RS (unlabeled) (RNA, riboswitch) AGAGGUUCUAGCUACACCCUCUAUAAAAAACUAA
The experiment is described as follows: inherent ligand fluorescence titration. As to conditions: 100 mM KCl, 1 mM MgCl2; 50 mM Tris pH 7.5, 5% DMSO, room temperature, compound 500 nM.

Experiment [11] has as its system TtPreQ1-RS (unlabeled) (RNA, riboswitch) CUGGGUCGCAGUAACCCCAGUUAACAAAACAAG
The experiment is described as follows: inherent ligand fluorescence titration. The note with it: 100 mM KCl, 1 mM MgCl2; 50 mM Tris pH 7.5, 5% DMSO, room temperature, compound 500 nM.

In the case of `CN(C)CCOc1ccc2oc3ccccc3c2c1`, the KD was determined as 400 ± 100 nM in [1] and 600 ± 200 nM in experiment [3]. Further, the binding result in [2] (1.94 Å) is “yes”.
Broadly, the EC50 is the concentration giving half of the maximal effect. Higher therefore signals weaker potency. For the molecule `NCc1c[nH]c2nc(N)[nH]c(=O)c12`, the figures for the KD in [1] and in experiment [3] were 4.1 ± 0.6 nM and 2.8 ± 0.4 nM, respectively. Moreover, the binding result is given as “yes” in experiment [4] (50 mM Tris pH 8.3, room temperature, compound 10 µM) and “yes” in [2] (1.69 Å). For the same molecule, the EC50 in experiment [5] was determined as 36 ± 5 nM.
As for `CN[C@H](C(=O)O)C(C)C`, the binding entry in [6] is given as “no”; in experiment [7], “no”; in [8] (50 mM Tris-d11 pH 7.5, 5% DMSO-d6, non-binding control, tested at 375 µM) it was “no”.
For the molecule `CN(C)CCOc1ccc2[nH]c3ccccc3c2c1`, the KD in experiment [1] worked out at 100 ± 80 nM; in experiment [3], 100 ± 40 nM. The binding result in experiment [9] (2.56 Å) is “yes”.
Take `NCCOc1ccc2oc3ccccc3c2c1`: the KD is 490 ± 368 nM in experiment [10], 534 ± 123 nM in experiment [1], 99 ± 38 nM in [11] and 457 ± 202 nM in experiment [3]. Also, the binding result is “yes” in experiment [4] (50 mM Tris pH 8.3, 5% DMSO, room temperature, compound 0.1-300 µM); “yes” in [9] (1.8 Å); “yes” in experiment [8] (50 mM Tris-d11 pH 7.5, 5% DMSO-d6, compound 375 µM); “yes” in experiment [2] (1.8 Å). This molecule also gave an EC50 in experiment [5] of 359000 ± 23000 nM.

The values are drawn from publication PMC6445138 (2019).
